# Measurements reported in ChEMBL document CHEMBL4316582, “Nitro-Group-Containing Drugs” (J Med Chem, 2019).
# Tests used:
# SK-OV-3 = assay: Cytotoxicity against human SKOV3 cells; format: functional, cell-based
# HT-29 [1] = assay: Cytotoxicity against human HT-29 cells; format: functional, cell-based
# HT-29 [2] = assay: Cytotoxicity against human HT-29 cells assessed as reduction in cell viability after 2 hrs by Alamar blue assay; format: functional, cell-based; conditions: HT-29, 2 h
# NCI-H460 [3] = assay: Cytotoxicity against human NCI-H460 cells assessed as reduction in cell viability after 2 hrs by Alamar blue assay; format: functional, cell-based; conditions: NCI-H460, 2 h
# NCI-H460 [4] = assay: Antiproliferative activity against human NCI-H460 cells in presence of O2; format: functional, cell-based
# NCI-H460 [5] = assay: Ratio of IC50 for antiproliferative activity against human NCI-H460 cells in presence of O2 to antiproliferative activity against human NCI-H460 cells in presence of N2; format: functional
# NCI-H460 [6] = assay: Antiproliferative activity against human NCI-H460 cells in presence of N2; format: functional, cell-based
# [7] = tested on: Mycobacterium tuberculosis; assay: Antitubercular activity against drug-sensitive Mycobacterium tuberculosis; format: functional
# [8] = tested on: Mycobacterium tuberculosis; assay: Antitubercular activity against Mycobacterium tuberculosis; format: functional
# NCI-H460 [9] = assay: Antiproliferative activity against human NCI-H460 cells; format: functional, cell-based
# NCI-H460 [10] = assay: Cytotoxicity against human NCI-H460 cells assessed as reduction in cell viability after 2 hrs under normoxic conditions by Alamar blue assay; format: functional, cell-based; conditions: NCI-H460, 2 h
# NCI-H460 [11] = assay: Cytotoxicity against human NCI-H460 cells assessed as reduction in cell viability after 2 hrs under hypoxic conditions by Alamar blue assay; format: functional, cell-based; conditions: NCI-H460, 2 h
# [12] = Cytotoxicity against human MiaPaCa cells assessed as reduction in cell viability after 2 hrs by Alamar blue assay; format: functional, cell-based; conditions: MIA PaCa-2, 2 h
# Quinone oxidoreductase = molecular target: T1, Quinone oxidoreductase (Homo sapiens, UniProt Q08257); assay: Inhibition of human Quinone oxidoreductase
# T1 sequence (Q08257 whole entry): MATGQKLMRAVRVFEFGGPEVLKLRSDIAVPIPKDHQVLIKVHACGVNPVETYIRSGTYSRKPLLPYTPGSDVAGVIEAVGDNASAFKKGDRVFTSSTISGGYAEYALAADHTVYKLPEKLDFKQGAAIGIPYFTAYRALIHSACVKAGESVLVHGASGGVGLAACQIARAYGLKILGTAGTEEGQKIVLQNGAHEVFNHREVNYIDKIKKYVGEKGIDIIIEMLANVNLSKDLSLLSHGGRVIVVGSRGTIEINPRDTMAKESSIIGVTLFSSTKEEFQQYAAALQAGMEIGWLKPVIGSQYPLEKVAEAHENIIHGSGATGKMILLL
# [13] = molecular target: T2, Oxygen-insensitive NAD(P)H nitroreductase (Escherichia coli K-12, UniProt P38489); assay: Susbtrate activity at Escherichia coli nitroreductase assessed as half life; format: ADME
# T2 sequence (P38489 whole entry): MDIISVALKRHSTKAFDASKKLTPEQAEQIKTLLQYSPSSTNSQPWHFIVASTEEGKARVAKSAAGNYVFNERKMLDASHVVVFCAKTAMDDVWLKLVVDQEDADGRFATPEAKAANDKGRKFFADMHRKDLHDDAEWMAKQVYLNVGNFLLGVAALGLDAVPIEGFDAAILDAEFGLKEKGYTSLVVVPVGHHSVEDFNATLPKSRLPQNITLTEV
# [14] = molecular target: T2, Oxygen-insensitive NAD(P)H nitroreductase; assay: Inhibition of Escherichia coli nitroreductase expressed in human HCT116 cells; format: cell-based
# [15] = Inhibition of Escherichia coli nitroreductase F179 mutant
# [16] = molecular target: Epidermal growth factor receptor (Homo sapiens, UniProt P00533); assay: Inhibition of erbB1 (unknown origin) using FRET-capable peptide substrate by FRET assay
# Hep 3B2 [17] = assay: Cytotoxicity against human Hep3B cells after 24 hrs by MTS assay; format: functional, cell-based
# Hep 3B2 [18] = assay: Cytotoxicity against human Hep3B cells after 24 hrs under hypoxic condition by MTS assay; format: functional, cell-based
# Chain of Epidermal growth factor receptor (P00533 whole entry): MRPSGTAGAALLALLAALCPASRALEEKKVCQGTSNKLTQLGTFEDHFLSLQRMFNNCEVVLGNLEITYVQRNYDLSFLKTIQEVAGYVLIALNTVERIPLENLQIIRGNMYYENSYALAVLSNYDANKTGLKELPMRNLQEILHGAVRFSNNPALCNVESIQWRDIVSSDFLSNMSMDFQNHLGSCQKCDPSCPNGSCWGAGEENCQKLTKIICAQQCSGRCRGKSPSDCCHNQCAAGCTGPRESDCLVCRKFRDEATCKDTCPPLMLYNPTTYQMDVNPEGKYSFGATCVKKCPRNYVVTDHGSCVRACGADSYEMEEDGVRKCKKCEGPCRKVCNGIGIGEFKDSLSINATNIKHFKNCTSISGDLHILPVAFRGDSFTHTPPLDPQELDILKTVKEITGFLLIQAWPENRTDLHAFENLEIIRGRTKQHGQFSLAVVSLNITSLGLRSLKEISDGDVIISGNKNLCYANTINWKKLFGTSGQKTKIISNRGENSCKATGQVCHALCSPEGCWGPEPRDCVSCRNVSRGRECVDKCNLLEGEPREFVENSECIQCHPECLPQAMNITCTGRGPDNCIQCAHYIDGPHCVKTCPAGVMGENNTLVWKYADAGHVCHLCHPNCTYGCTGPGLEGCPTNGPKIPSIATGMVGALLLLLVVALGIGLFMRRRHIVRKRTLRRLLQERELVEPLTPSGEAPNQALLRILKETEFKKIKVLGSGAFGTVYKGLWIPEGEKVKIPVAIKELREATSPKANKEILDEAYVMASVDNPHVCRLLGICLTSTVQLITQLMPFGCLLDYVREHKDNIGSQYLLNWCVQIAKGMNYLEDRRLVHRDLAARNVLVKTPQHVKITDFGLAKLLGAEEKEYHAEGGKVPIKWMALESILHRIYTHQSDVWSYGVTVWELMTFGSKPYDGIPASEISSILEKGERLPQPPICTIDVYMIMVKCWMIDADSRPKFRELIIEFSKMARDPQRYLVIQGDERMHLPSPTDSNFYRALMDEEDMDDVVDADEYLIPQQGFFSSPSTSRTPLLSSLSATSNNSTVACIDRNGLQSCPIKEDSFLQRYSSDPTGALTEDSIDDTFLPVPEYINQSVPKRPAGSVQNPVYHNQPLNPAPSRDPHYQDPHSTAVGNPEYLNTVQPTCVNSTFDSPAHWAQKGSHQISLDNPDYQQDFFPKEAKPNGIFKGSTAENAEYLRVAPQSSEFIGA
smiles,measurement,setting,value
CC(=O)c1ccc2c([N+](=O)[O-])cc3c(c2c1)C(CCl)CN3C(=O)c1cc2cc(OCCN(C)C)ccc2[nH]1 (stereo unspecified),IC50,SK-OV-3,210 nM
same,IC50,HT-29 [1],150 nM
CC#Cc1c(OC)ccc2c(C(=O)c3cc(OC)c(OC)c(OC)c3)nn(C[N+](C)(C)Cc3c(-c4ccc(Br)o4)nc([N+](=O)[O-])n3C)c12,IC50,HT-29 [2],17 nM
same,IC50,NCI-H460 [3],18 nM
CC(OP(N)(=O)N(CCCl)CCCl)c1ccc([N+](=O)[O-])cc1 (stereo unspecified),IC50,SK-OV-3,1800 nM
NC(=O)c1cc([N+](=O)[O-])cnc1N1CC1,IC50,NCI-H460 [4],198000 nM
same,Ratio IC50,NCI-H460 [5],21.3
same,IC50,NCI-H460 [6],9300 nM
FC(F)(F)Oc1ccc(CO[C@@H]2COc3nccn3C2)cc1,MIC,[7],0.039 to 0.531 µg/mL
same,MIC,[8],< 2.8 µM
NP(=O)(OCc1ccc([N+](=O)[O-])cc1)N(CCCl)CCCl (stereo unspecified),IC50,SK-OV-3,1100 nM
N#Cc1cc(COP(=O)(NCCBr)NCCBr)sc1[N+](=O)[O-],IC50,NCI-H460 [4],10 nM
same,IC50,NCI-H460 [9],20 nM
same,IC50,NCI-H460 [6],6 nM
CC#Cc1c(OC)ccc2c(C(=O)c3cc(OC)c(OC)c(OC)c3)nn(C[N+](C)(C)Cc3c(CC)nc([N+](=O)[O-])n3C)c12,IC50,HT-29 [2],9 nM
same,IC50,NCI-H460 [3],42 nM
COc1cccc2c1C(=O)c1c(O)c3c(c(O)c1C2=O)C[C@@](O)(C(C)=O)C[C@@H]3O[C@H]1C[C@H](n2ccnc2[N+](=O)[O-])[C@H](O)[C@H](C)O1,IC50,NCI-H460 [10],2300 nM
same,IC50,NCI-H460 [11],12 nM
[O-]/[N+](O)=C1/CN2C[C@H](OCc3ccc(OC(F)(F)F)cc3)COC2=N1,MIC,[7],0.039 to 0.531 µg/mL
same,MIC,[8],< 2.8 µM
COC(=O)c1ccc2c3c(cc([N+](=O)[O-])c2c1)N(C(=O)c1cc2cc(OCCN(C)C)ccc2[nH]1)CC3CCl (stereo unspecified),IC50,SK-OV-3,440 nM
same,IC50,HT-29 [1],320 nM
C=Cc1nc([N+](=O)[O-])n(C)c1C[N+](C)(C)Cn1nc(C(=O)c2cc(OC)c(OC)c(OC)c2)c2ccc(OC)c(C#CC)c21,IC50,HT-29 [2],7 nM
same,IC50,[12],20 nM
same,IC50,NCI-H460 [3],48 nM
O=[N+]([O-])c1ccc2c(c1)OP(=O)(N(CCCl)CCCl)NC2 (stereo unspecified),IC50,Quinone oxidoreductase,48000 nM
same,half-life,[13],11 min
same,IC50,[14],48000 nM
same,IC50,[15],61000 nM
O=[N+]([O-])c1ccc(C2CCOP(=O)(N(CCCl)CCCl)N2)cc1 (stereo unspecified),IC50,Quinone oxidoreductase,48000 nM
CC#Cc1c(OC)ccc2c(C(=O)c3cc(OC)c(OC)c(OC)c3)nn(C[N+](C)(C)Cc3c(CCC)nc([N+](=O)[O-])n3C)c12,IC50,HT-29 [2],18 nM
same,IC50,NCI-H460 [3],40 nM
C[N+](C)(C/C=C/C(=O)Nc1ccc2ncnc(Nc3cccc(Br)c3)c2c1)Cc1ccccc1[N+](=O)[O-],IC50,[16],0.22 to 0.56 nM
C[N+](C)(C/C=C/C(=O)Nc1ccc2ncnc(Nc3cccc(Br)c3)c2c1)Cc1ccc([N+](=O)[O-])cc1,IC50,[16],0.22 to 0.56 nM
NC(=O)c1cc(N2CC2)ncc1[N+](=O)[O-],IC50,NCI-H460 [4],19600 nM
same,IC50,NCI-H460 [6],1100 nM
COc1ccc(C[C@@H](C)[C@@H](C)Cc2ccc(OC)c(OCCOCCOCCOCCn3ccnc3[N+](=O)[O-])c2)cc1OC,IC50,Hep 3B2 [17],12600 nM
same,IC50,Hep 3B2 [18],53200 nM
Cn1cnc([N+](=O)[O-])c1C[N+](C)(C)C/C=C/C(=O)Nc1ccc2ncnc(Nc3cccc(Br)c3)c2c1,IC50,[16],0.22 to 0.56 nM
COc1cc([N+](=O)[O-])ccc1COP(N)(=O)N(CCCl)CCCl (stereo unspecified),IC50,SK-OV-3,1800 nM
Cn1c(C[N+](C)(C)C/C=C/C(=O)Nc2ccc3ncnc(Nc4cccc(Br)c4)c3c2)ccc1[N+](=O)[O-],IC50,[16],0.22 to 0.56 nM
CC#Cc1c(OC)ccc2c(C(=O)c3cc(OC)c(OC)c(OC)c3)nn(C[N+](C)(C)Cc3ccc([N+](=O)[O-])o3)c12,IC50,HT-29 [2],12 nM
same,IC50,NCI-H460 [3],45 nM
COc1ccc(C[C@@H](C)[C@@H](C)Cc2ccc(OCCOCCOCCOCCn3cnc([N+](=O)[O-])c3)c(OC)c2)cc1OC,IC50,Hep 3B2 [17],12500 nM
same,IC50,Hep 3B2 [18],52100 nM
CC(=O)O[C@H]1C(=O)[C@@]2(C)[C@H]([C@H](OC(=O)c3ccccc3)[C@]3(O)C[C@H](OC(=O)[C@H](OC(=O)N(C)CCN(C)C(=O)OC(C)c4ccc([N+](=O)[O-])c(Oc5ccc6ncccc6c5)c4)[C@@H](NC(=O)c4ccccc4)c4ccccc4)C(C)=C1C3(C)C)[C@]1(OC(C)=O)CO[C@@H]1C[C@@H]2O (stereo partly specified),IC50,NCI-H460 [9],30 nM
